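Each compound was tested at five concentrations against cells in 96-well plates for 48 hours. GI50 = concentration required for 50% inhibition of growth. TGI is the concentration that stops growth completely.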
Legend:
Assay in all cases: NCI tumour cell line growth inhibition, 48 h
786-0 renal = tested on: 786-0 renal
A498 renal = tested on: A498 renal
A549 NSCLC = tested on: A549 NSCLC
ACHN renal = tested on: ACHN renal
BT-549 breast = tested on: BT-549 breast
CAKI-1 renal = tested on: CAKI-1 renal
CCRF-CEM leukemia = tested on: CCRF-CEM leukemia
COLO 205 colon = tested on: COLO 205 colon
DU-145 prostate = tested on: DU-145 prostate
EKVX NSCLC = tested on: EKVX NSCLC
HCC-2998 colon = tested on: HCC-2998 colon
HCT-116 colon = tested on: HCT-116 colon
HCT-15 colon = tested on: HCT-15 colon
HL-60(TB) leukemia = tested on: HL-60(TB) leukemia
HOP-62 NSCLC = tested on: HOP-62 NSCLC
HOP-92 NSCLC = tested on: HOP-92 NSCLC
HS 578T breast = tested on: HS 578T breast
HT29 colon = tested on: HT29 colon
IGROV1 ovarian = tested on: IGROV1 ovarian
K-562 leukemia = tested on: K-562 leukemia
KM12 colon = tested on: KM12 colon
LOX IMVI melanoma = tested on: LOX IMVI melanoma
M14 melanoma = tested on: M14 melanoma
MALME-3M melanoma = tested on: MALME-3M melanoma
MCF7 breast = tested on: MCF7 breast
MDA-MB-231 breast = tested on: MDA-MB-231 breast
MDA-MB-435 = tested on: MDA-MB-435
MOLT-4 leukemia = tested on: MOLT-4 leukemia
NCI-H226 lung = tested on: NCI-H226 lung
NCI-H23 lung = tested on: NCI-H23 lung
NCI-H460 lung = tested on: NCI-H460 lung
NCI-H522 lung = tested on: NCI-H522 lung
NCI/ADR-RES ovarian = tested on: NCI/ADR-RES ovarian
OVCAR-3 ovarian = tested on: OVCAR-3 ovarian
OVCAR-4 ovarian = tested on: OVCAR-4 ovarian
OVCAR-5 ovarian = tested on: OVCAR-5 ovarian
OVCAR-8 ovarian = tested on: OVCAR-8 ovarian
PC-3 prostate = tested on: PC-3 prostate
RPMI-8226 leukemia = tested on: RPMI-8226 leukemia
RXF 393 renal = tested on: RXF 393 renal
SF-268 CNS = tested on: SF-268 CNS
SF-295 CNS = tested on: SF-295 CNS
SF-539 CNS = tested on: SF-539 CNS
SK-MEL-2 melanoma = tested on: SK-MEL-2 melanoma
SK-MEL-28 melanoma = tested on: SK-MEL-28 melanoma
SK-MEL-5 melanoma = tested on: SK-MEL-5 melanoma
SK-OV-3 ovarian = tested on: SK-OV-3 ovarian
SN12C renal = tested on: SN12C renal
SNB-19 CNS = tested on: SNB-19 CNS
SNB-75 CNS = tested on: SNB-75 CNS
SR leukemia = tested on: SR leukemia
SW-620 colon = tested on: SW-620 colon
T-47D breast = tested on: T-47D breast
TK-10 renal = tested on: TK-10 renal
U251 CNS = tested on: U251 CNS
UACC-257 melanoma = tested on: UACC-257 melanoma
UACC-62 melanoma = tested on: UACC-62 melanoma
UO-31 renal = tested on: UO-31 renal

SMILES: O=[N+]([O-])c1ccc(-c2ccccc2)c([As](=O)(O)O)c1
- GI50 (786-0 renal): 17.7 µM
- TGI (786-0 renal): 36.4 µM
- GI50 (A498 renal): 16.5 µM
- TGI (A498 renal): 67 µM
- GI50 (A549 NSCLC): 27.2 µM
- TGI (A549 NSCLC): > 100 µM
- GI50 (ACHN renal): 13.7 µM
- TGI (ACHN renal): 30.1 µM
- GI50 (BT-549 breast): 47.2 µM
- TGI (BT-549 breast): > 100 µM
- GI50 (CAKI-1 renal): 13.2 µM
- TGI (CAKI-1 renal): 98.1 µM
- GI50 (CCRF-CEM leukemia): 4.42 µM
- TGI (CCRF-CEM leukemia): 39.9 µM
- GI50 (COLO 205 colon): 12.8 µM
- TGI (COLO 205 colon): 27.4 µM
- GI50 (DU-145 prostate): 11.3 µM
- TGI (DU-145 prostate): 29 µM
- GI50 (EKVX NSCLC): 15.9 µM
- TGI (EKVX NSCLC): > 100 µM
- GI50 (HCC-2998 colon): 19.4 µM
- TGI (HCC-2998 colon): 45.5 µM
- GI50 (HCT-116 colon): 10.9 µM
- TGI (HCT-116 colon): 25.4 µM
- GI50 (HCT-15 colon): 9.3 µM
- TGI (HCT-15 colon): 41.2 µM
- GI50 (HL-60(TB) leukemia): 43.5 µM
- TGI (HL-60(TB) leukemia): > 100 µM
- GI50 (HOP-62 NSCLC): 3.11 µM
- TGI (HOP-62 NSCLC): 18 µM
- GI50 (HOP-92 NSCLC): 13.5 µM
- TGI (HOP-92 NSCLC): 95.4 µM
- GI50 (HS 578T breast): 0.798 µM
- TGI (HS 578T breast): 18.4 µM
- GI50 (HT29 colon): 13.5 µM
- TGI (HT29 colon): 32.2 µM
- GI50 (IGROV1 ovarian): 8.35 µM
- TGI (IGROV1 ovarian): 27.8 µM
- GI50 (K-562 leukemia): 4.89 µM
- TGI (K-562 leukemia): > 100 µM
- GI50 (KM12 colon): 39.4 µM
- TGI (KM12 colon): > 100 µM
- GI50 (LOX IMVI melanoma): 8.15 µM
- TGI (LOX IMVI melanoma): 46.9 µM
- GI50 (M14 melanoma): 26.6 µM
- TGI (M14 melanoma): > 100 µM
- GI50 (MALME-3M melanoma): 11.6 µM
- TGI (MALME-3M melanoma): 34.6 µM
- GI50 (MCF7 breast): 3.75 µM
- TGI (MCF7 breast): 16.1 µM
- GI50 (MDA-MB-231 breast): 10 µM
- TGI (MDA-MB-231 breast): 37.4 µM
- GI50 (MDA-MB-435): 21.9 µM
- TGI (MDA-MB-435): > 100 µM
- GI50 (MOLT-4 leukemia): 19.9 µM
- TGI (MOLT-4 leukemia): > 100 µM
- GI50 (NCI-H226 lung): 18.5 µM
- TGI (NCI-H226 lung): 69.4 µM
- GI50 (NCI-H23 lung): 18.9 µM
- TGI (NCI-H23 lung): 88.2 µM
- GI50 (NCI-H460 lung): 28 µM
- TGI (NCI-H460 lung): > 100 µM
- GI50 (NCI-H522 lung): 6.92 µM
- TGI (NCI-H522 lung): 21.3 µM
- GI50 (NCI/ADR-RES ovarian): 22.6 µM
- TGI (NCI/ADR-RES ovarian): > 100 µM
- GI50 (OVCAR-3 ovarian): 10.4 µM
- TGI (OVCAR-3 ovarian): 29.3 µM
- GI50 (OVCAR-4 ovarian): 14.6 µM
- TGI (OVCAR-4 ovarian): 52 µM
- GI50 (OVCAR-5 ovarian): 28.4 µM
- TGI (OVCAR-5 ovarian): > 100 µM
- GI50 (OVCAR-8 ovarian): 22.6 µM
- TGI (OVCAR-8 ovarian): > 100 µM
- GI50 (PC-3 prostate): 16.1 µM
- TGI (PC-3 prostate): > 100 µM
- GI50 (RPMI-8226 leukemia): 15.2 µM
- TGI (RPMI-8226 leukemia): 62.9 µM
- GI50 (RXF 393 renal): 10.7 µM
- TGI (RXF 393 renal): 23.2 µM
- GI50 (SF-268 CNS): 9.85 µM
- TGI (SF-268 CNS): 39.2 µM
- GI50 (SF-295 CNS): 22.3 µM
- TGI (SF-295 CNS): > 100 µM
- GI50 (SF-539 CNS): 13 µM
- TGI (SF-539 CNS): 44.6 µM
- GI50 (SK-MEL-2 melanoma): 28.2 µM
- TGI (SK-MEL-2 melanoma): 62.8 µM
- GI50 (SK-MEL-28 melanoma): 18 µM
- TGI (SK-MEL-28 melanoma): 50.3 µM
- GI50 (SK-MEL-5 melanoma): 40.6 µM
- TGI (SK-MEL-5 melanoma): > 100 µM
- GI50 (SK-OV-3 ovarian): 24.2 µM
- TGI (SK-OV-3 ovarian): 91.5 µM
- GI50 (SN12C renal): 12.7 µM
- TGI (SN12C renal): > 100 µM
- GI50 (SNB-19 CNS): 18.7 µM
- TGI (SNB-19 CNS): > 100 µM
- GI50 (SNB-75 CNS): 15.1 µM
- TGI (SNB-75 CNS): > 100 µM
- GI50 (SR leukemia): 10.3 µM
- TGI (SR leukemia): 57.3 µM
- GI50 (SW-620 colon): 7.82 µM
- TGI (SW-620 colon): 24.4 µM
- GI50 (T-47D breast): 4.35 µM
- TGI (T-47D breast): 49.5 µM
- GI50 (TK-10 renal): 17.5 µM
- TGI (TK-10 renal): 38.5 µM
- GI50 (U251 CNS): 3.08 µM
- TGI (U251 CNS): 23.9 µM
- GI50 (UACC-257 melanoma): 21.7 µM
- TGI (UACC-257 melanoma): > 100 µM
- GI50 (UACC-62 melanoma): 22.5 µM
- TGI (UACC-62 melanoma): > 100 µM
- GI50 (UO-31 renal): 12.3 µM
- TGI (UO-31 renal): 44.8 µM

From PubChem BioAssay (NCI)
